From ChEMBL document CHEMBL6092192 (J Med Chem, 2024)
Activity calls are given as the source filed them. The calls are words filed in the database; no cut-off is given here.

How the values were obtained:
[1] = system: SW-620; experiment: Cytotoxicity against human SW620 cells assessed as survival rate at 4 uM measured after 72 hrs by MTT assay relative to control; assay type: functional; settings: read-out: Survival
[2] = system: SW620/AD300; experiment: Antitumor activity against human SW620/AD300 cells xenografted in male BALB/c nude mouse model assessed as reduction in tumor volume at 100 mg/kg/day, IG measured after 21 days; assay type: functional, organism-based; settings: time 21.0 day
[3] = MRT (0 to t) in 12 hrs fasted Sprague-Dawley rat at 1 mg/kg, iv measured upto 720 mins by HPLC-MS/MS analysis; assay type: ADME, organism-based; settings: in vivo
[4] = AUC (0 to infinity) in 12 hrs fasted Sprague-Dawley rat at 10 mg/kg, po measured upto 720 mins by HPLC-MS/MS analysis; assay type: ADME, organism-based; settings: in vivo
[5] = system: KB-C2; experiment: Reversal of paclitaxel resistance in human KB-C2 cells assessed as reversal fold by measuring ratio of paclitaxel IC50 to paclitaxel IC50 in presence of test compound at 2 uM incubated for 72 hrs by MTT assay; assay type: functional
[6] = Toxicity in BALB/c nude mouse assessed as mortality at 100 mg/kg/day, IG measured after 21 days in presence of paclitaxel; assay type: organism-based; settings: in vivo, po, 504 h, time 21 day
[7] = system: CD8-positive T cell; experiment: Activation of immune response in human CD8-positive T cell assessed as increase in perforin level at 4 uM by ELISA method; assay type: functional, cell-based
[8] = Reversal of paclitaxel resistance in HEK293 cells transfected with pcDNA3.1 assessed as reversal fold by measuring ratio of paclitaxel IC50 to paclitaxel IC50 in presence of test compound at 2 uM incubated for 72 hrs by MTT assay; assay type: functional, Homo sapiens
[9] = Clearance in 12 hrs fasted Sprague-Dawley rat at 1 mg/kg, iv measured upto 720 mins by HPLC-MS/MS analysis; assay type: ADME, organism-based; settings: in vivo
[10] = target: ATP-dependent translocase ABCB1 (Homo sapiens, UniProt P08183); experiment: Inhibition of ABCB1 in human SW620/AD300 cells assessed as increase in intracellular paclitaxel incubated for 4 hrs by liquid scintillation analysis; assay type: cell-based; settings: sw620/ad300, 4 h, at 2 to 4 µM, dose 2-4 µM
Chain of ATP-dependent translocase ABCB1 (P08183 whole entry): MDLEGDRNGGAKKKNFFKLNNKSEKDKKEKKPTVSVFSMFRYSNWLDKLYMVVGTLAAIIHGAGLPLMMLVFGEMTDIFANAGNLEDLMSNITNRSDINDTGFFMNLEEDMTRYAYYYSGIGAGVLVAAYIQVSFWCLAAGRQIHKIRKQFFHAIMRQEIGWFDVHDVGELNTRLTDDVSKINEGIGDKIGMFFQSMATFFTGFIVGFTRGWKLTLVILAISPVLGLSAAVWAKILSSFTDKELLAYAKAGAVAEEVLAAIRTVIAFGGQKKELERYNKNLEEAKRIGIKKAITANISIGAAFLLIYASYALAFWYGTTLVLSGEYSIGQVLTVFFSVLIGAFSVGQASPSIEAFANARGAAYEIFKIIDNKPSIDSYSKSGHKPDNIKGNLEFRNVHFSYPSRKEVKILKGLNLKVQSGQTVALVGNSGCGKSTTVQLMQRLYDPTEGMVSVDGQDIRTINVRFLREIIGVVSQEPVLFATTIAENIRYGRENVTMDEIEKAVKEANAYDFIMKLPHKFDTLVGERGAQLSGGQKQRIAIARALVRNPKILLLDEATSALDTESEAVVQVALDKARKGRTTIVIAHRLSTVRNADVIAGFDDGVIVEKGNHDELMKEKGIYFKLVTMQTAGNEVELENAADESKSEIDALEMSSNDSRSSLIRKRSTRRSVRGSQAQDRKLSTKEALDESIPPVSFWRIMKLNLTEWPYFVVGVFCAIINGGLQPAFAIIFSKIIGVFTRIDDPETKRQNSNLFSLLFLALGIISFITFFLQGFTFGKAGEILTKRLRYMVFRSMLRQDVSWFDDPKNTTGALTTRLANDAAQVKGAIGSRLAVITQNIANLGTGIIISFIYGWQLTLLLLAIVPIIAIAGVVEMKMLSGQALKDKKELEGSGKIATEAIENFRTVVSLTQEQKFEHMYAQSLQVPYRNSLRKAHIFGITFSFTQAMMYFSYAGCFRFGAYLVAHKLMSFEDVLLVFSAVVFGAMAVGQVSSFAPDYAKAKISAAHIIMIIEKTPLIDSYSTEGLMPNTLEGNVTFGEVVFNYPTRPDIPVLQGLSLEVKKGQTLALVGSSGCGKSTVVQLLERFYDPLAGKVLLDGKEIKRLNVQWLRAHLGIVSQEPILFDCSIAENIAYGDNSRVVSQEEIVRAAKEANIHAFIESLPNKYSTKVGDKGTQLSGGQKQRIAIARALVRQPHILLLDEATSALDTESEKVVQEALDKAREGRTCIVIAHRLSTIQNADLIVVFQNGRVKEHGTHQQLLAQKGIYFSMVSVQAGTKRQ

[11] = system: HEK293; experiment: Cytotoxicity against HEK293 cells transfected with pcDNA3.1 assessed as survival rate at 5 uM measured after 72 hrs by MTT assay relative to control; assay type: functional; settings: Homo sapiens, read-out: Survival
[12] = system: KB 3-1; experiment: Reversal of paclitaxel resistance in human KB 3-1 cells assessed as reversal fold by measuring ratio of paclitaxel IC50 to paclitaxel IC50 in presence of test compound at 4 uM incubated for 72 hrs by MTT assay; assay type: functional
[13] = system: CT26/TAXOL; experiment: Antitumor T-cell immune response in […] cells xenografted in BALB/c nude mouse model assessed as reduction in tumor growth at 100 mg/kg/day, IG measured after 14 days; assay type: functional, organism-based; settings: time 14.0 day
[14] = target: Voltage-gated inwardly rectifying potassium channel KCNH2 (Homo sapiens, UniProt Q12809); experiment: Inhibition of human ERG expressed in CHO cells by QPatch assay; assay type: toxicity, cell-based
Chain of Voltage-gated inwardly rectifying potassium channel KCNH2 (Q12809 whole entry): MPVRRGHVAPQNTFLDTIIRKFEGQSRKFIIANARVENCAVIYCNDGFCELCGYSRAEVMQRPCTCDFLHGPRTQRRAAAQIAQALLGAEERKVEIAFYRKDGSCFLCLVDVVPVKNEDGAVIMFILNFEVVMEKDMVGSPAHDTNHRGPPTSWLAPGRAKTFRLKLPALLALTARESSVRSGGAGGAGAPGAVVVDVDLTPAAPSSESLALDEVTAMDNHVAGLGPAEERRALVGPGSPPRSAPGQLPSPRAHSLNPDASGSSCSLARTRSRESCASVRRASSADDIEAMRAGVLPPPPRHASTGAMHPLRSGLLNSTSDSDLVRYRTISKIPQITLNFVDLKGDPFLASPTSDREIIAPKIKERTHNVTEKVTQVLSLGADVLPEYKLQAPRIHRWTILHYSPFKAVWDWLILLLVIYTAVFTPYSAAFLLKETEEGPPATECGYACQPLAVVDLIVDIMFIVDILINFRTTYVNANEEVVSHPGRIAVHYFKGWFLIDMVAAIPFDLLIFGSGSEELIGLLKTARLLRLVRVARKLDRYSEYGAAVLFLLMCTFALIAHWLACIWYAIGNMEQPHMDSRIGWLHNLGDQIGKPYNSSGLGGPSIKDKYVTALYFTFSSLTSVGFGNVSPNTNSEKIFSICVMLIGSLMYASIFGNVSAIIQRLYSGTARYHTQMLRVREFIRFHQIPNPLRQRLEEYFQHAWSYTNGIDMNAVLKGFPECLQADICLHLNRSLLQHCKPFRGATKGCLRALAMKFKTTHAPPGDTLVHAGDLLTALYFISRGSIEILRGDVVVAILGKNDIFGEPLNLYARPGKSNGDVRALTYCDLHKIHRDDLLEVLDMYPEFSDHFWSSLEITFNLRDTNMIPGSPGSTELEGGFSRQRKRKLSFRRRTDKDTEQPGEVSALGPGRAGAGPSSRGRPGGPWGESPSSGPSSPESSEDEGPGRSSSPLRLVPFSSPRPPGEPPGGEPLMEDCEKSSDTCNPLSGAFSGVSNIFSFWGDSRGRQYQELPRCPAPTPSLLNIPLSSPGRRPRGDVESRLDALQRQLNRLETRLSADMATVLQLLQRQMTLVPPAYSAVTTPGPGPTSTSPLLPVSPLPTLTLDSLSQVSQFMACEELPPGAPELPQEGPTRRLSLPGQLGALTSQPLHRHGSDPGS

[15] = Half life in 12 hrs fasted Sprague-Dawley rat at 1 mg/kg, iv measured upto 720 mins by HPLC-MS/MS analysis; assay type: ADME, organism-based; settings: in vivo
[16] = Toxicity in BALB/c nude mouse xenografted with […] CT26/TAXOL cells assessed as effect on kidney at 100 mg/kg/day, IG in presence of paclitaxel measured after 14 days by H and E staining based analysis; assay type: organism-based; settings: in vivo, po, 336 h, time 14 day
[17] = Cmax in 12 hrs fasted Sprague-Dawley rat at 10 mg/kg, po measured upto 720 mins by HPLC-MS/MS analysis; assay type: ADME, organism-based; settings: in vivo
[18] = MRT (0 to t) in 12 hrs fasted Sprague-Dawley rat at 10 mg/kg, po measured upto 720 mins by HPLC-MS/MS analysis; assay type: ADME, organism-based; settings: in vivo
[19] = Toxicity in BALB/c nude mouse xenografted with […] CT26/TAXOL cells assessed as change in body weight at 100 mg/kg/day, IG measured upto 14 days; assay type: organism-based; settings: in vivo, po, 336 h, time < 14 day
[20] = Toxicity in BALB/c nude mouse xenografted with […] CT26/TAXOL cells assessed as effect on brain at 100 mg/kg/day, IG in presence of paclitaxel/anti-PD-1 measured after 14 days by H and E staining based analysis; assay type: organism-based; settings: in vivo, po, 336 h, time 14 day
[21] = Toxicity in BALB/c nude mouse xenografted with […] CT26/TAXOL cells assessed as effect on lung at 100 mg/kg/day, IG measured after 14 days by H and E staining based analysis; assay type: organism-based; settings: in vivo, po, 336 h, time 14 day
[22] = Toxicity in BALB/c nude mouse xenografted with […] CT26/TAXOL cells assessed as effect on lung at 100 mg/kg/day, IG in presence of paclitaxel/anti-PD-1 measured after 14 days by H and E staining based analysis; assay type: organism-based; settings: in vivo, po, 336 h, time 14 day
[23] = Half life in 12 hrs fasted Sprague-Dawley rat at 10 mg/kg, po measured upto 720 mins by HPLC-MS/MS analysis; assay type: ADME, organism-based; settings: in vivo
[24] = Toxicity in Sprague-Dawley rat assessed as maximum tolerated dose measured for 14 days administered as single oral dose; settings: in vivo, time 14 day
[25] = system: CT26/TAXOL; experiment: Antitumor T-cell immune response in […] cells xenografted in BALB/c nude mouse model assessed as increase in CD8+ T-cell infiltration at 100 mg/kg/day, IG in presence of anti-PD-1/paclitaxel measured after 14 days by immunofluorescence staining based analysis; assay type: functional, organism-based; settings: time 14.0 day
[26] = Toxicity in BALB/c nude mouse xenografted with […] CT26/TAXOL cells assessed as change in body weight at 100 mg/kg/day, IG measured upto 14 days in presence of paclitaxel/anti-PD-1; assay type: organism-based; settings: in vivo, po, 336 h, time < 14 day
[27] = system: CD8-positive T cell; experiment: Activation of immune response in human CD8-positive T cell assessed as increase in IFN-gamma level at 4 uM by ELISA method; assay type: functional, cell-based
[28] = Toxicity in BALB/c nude mouse xenografted with […] CT26/TAXOL cells assessed as effect on kidney at 100 mg/kg/day, IG in presence of paclitaxel/anti-PD-1 measured after 14 days by H and E staining based analysis; assay type: organism-based; settings: in vivo, po, 336 h, time 14 day
[29] = Oral bioavailability in 12 hrs fasted Sprague-Dawley rat at 10 mg/kg measured upto 720 mins by HPLC-MS/MS analysis; assay type: ADME, organism-based; settings: in vivo
[30] = Toxicity in BALB/c nude mouse xenografted with […] CT26/TAXOL cells assessed as effect on liver at 100 mg/kg/day, IG measured after 14 days by H and E staining based analysis; assay type: organism-based; settings: in vivo, po, 336 h, time 14 day
[31] = Tmax in 12 hrs fasted Sprague-Dawley rat at 1 mg/kg, iv measured upto 720 mins by HPLC-MS/MS analysis; assay type: ADME, organism-based; settings: in vivo
[32] = system: CD8-positive T cell; experiment: Activation of immune response in human CD8-positive T cell assessed as increase in granzyme level at 4 uM by ELISA method; assay type: functional, cell-based
[33] = system: SW620/AD300; experiment: Cytotoxicity against multidrug resistant human SW620/AD300 cells assessed as survival rate at 4 uM measured after 72 hrs by MTT assay relative to control; assay type: functional; settings: read-out: Survival

For `O=c1c2c([nH]c3nc(SCc4nc5ccccc5s4)nn13)CCC2`, the viability at 4 µM [1] was 92.4%, the Activity [2] was “Active; Compound Showed Negligible Effect” and the MRT last at 12 h [3] was 4.42 h. The AUC(0-inf) [4] was 5840 ng·h/mL, the “Ratio IC50” value [5] was 106.85 and the Activity [6] was “Non-toxic”. The Activity [7] was “Active”, the “Ratio IC50” value [8] was 10.9 and the clearance [9] was 18.3 mL/min/kg. For the same compound, the “inhibition (INH)” value [10] was “Dose-dependent-effect”, the viability at 5 µM [11] was 94.3% and the “Ratio IC50” value [12] was 1.39. The Activity [13] was “Not active; Compound Showed Negligible Effect”, the IC50 [14] was over 50 µM and the half-life [15] was 5.37 h. For the same compound, the Activity [16] was “Non-toxic”, the Cmax [17] was 504 ng/mL and the MRT last at 12 h [18] was 6.87 h. For the same compound, the Activity [19] was “Non-toxic”, the Activity [20] was “Non-toxic” and the Activity [21] was “Non-toxic”. The Activity [22] was “Non-toxic”, the half-life [23] was 4.07 h and the MTD at 336 h [24] was 1000 mg/kg. For the same compound, the Activity [25] was “Active”, the Activity [26] was “Non-toxic” and the Activity [27] was “Active”. The Activity [28] was “Non-toxic”, the bioavailability [29] was 63.9% and the Activity [30] was “Non-toxic”. For the same compound, the Tmax [31] was 4.98 min, the Activity [32] was “Active” and the viability at 4 µM [33] was 95.6%.
